Experimental findings from patent US9512175B2, “Macrocyclic inhibitors of flaviviridae viruses” (Gilead Sciences, Inc., priority 2012, dated 2016) are described below.

Assay [1] deals with HCV replicon (Replicon 1a). As to the kind of experiment: anti-HCV activity in Huh-7 cell line harboring a HCV replicon (Replicon 1a). Format: cell-based. As to conditions: Hepatitis C virus, Huh-7, 72 h.
Assay [2] addresses cyclophilin A (Homo sapiens, UniProt P62937). Description: Cyclophilin A TR-FRET competitive binding assay. As to conditions: IC50 ranges; competition with CsA-Cy5 for His-tagged CypA, two-hour incubation; read-out: TR-FRET. The protocol: Cyclophilin A TR-FRET Competitive Binding Assay
Inhibitor potency was measured using a competitive binding assay with a time-resolved fluorescence resonance energy transfer (TR-FRET) readout. […] An IC50 value was calculated using a four-parameter logistic fit.

[3] abbreviates: read-out: Replicon 1a % inhibition at 1 μM, 1 μM, human hepatoma Huh-7 HCV replicon cells, 3 days, luciferase readout.

Like-named read-outs stand apart in the source and are kept apart here.

cyclophilin A, sequence (P62937 whole entry, species assumed): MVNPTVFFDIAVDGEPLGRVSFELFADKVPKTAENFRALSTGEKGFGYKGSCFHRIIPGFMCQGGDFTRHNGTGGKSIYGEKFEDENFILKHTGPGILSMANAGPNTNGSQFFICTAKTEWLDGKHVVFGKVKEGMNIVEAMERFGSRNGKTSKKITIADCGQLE

One may read the inhibition as the percentage by which the read-out fell short of the control. In the case of `CC(C)[C@@H]1NC(=O)[C@@](C)(CO)/C=C/c2ccc3ccc(cc3c2)[C@@H](C)OC(=O)[C@@H]2CCCN(N2)C(=O)[C@H](C)NC1=O` [Compound 104], the inhibition at 1 µM in assay [1] (setting [3]) turned out to be 98%. The IC50 in assay [2] was < 100 nM.

Turning to `CC(C)[C@@H]1NC(=O)C(C)(C)/C=C/c2ccc3ccc(nc3c2)[C@@H](C)OC(=O)[C@@H]2CCCN(N2)C(=O)[C@H](COC(F)F)NC1=O` [Compound 106], the inhibition at 1 µM in assay [1] (setting [3]) is 99%. Also, the IC50 in assay [2] was < 100 nM.

For `COC[C@@]1(C)/C=C/c2ccc3ccc(nc3c2)[C@@H](C)OC(=O)[C@@H]2CCCN(N2)C(=O)[C@H](C)NC(=O)[C@H](C(C)C)NC1=O` [Compound 107], the inhibition at 1 µM in assay [1] (setting [3]) was 100%. The IC50 in assay [2] is < 100 nM.

For the compound `CC(C)[C@@H]1NC(=O)C(C)(C)/C=C/c2ccc3ccc(nc3c2)[C@@H](C)OC(=O)[C@@H]2CCCN(N2)C(=O)[C@H](Cc2cscn2)NC1=O` [Compound 110], the inhibition at 1 µM in assay [1] (setting [3]) stood at 100%. Also, the IC50 in assay [2] was < 100 nM.

Take `CC(C)[C@@H]1NC(=O)C(C)(C)/C=C/c2ccc3ccc(nc3c2)[C@@H](C)NC(=O)[C@@H]2CCCN(N2)C(=O)[C@H](C)NC1=O` [Compound 111]: in assay [1] (setting [3]), the inhibition at 1 µM worked out at 87%. Besides, the IC50 in assay [2] was < 100 nM.

Turning to `CC(C)[C@@H]1NC(=O)C(C)(C)/C=C/c2ccc3ccc(nc3c2)[C@@H](C)OC(=O)[C@@H]2CCCN(N2)C(=O)[C@H](COCC2(C)COC2)NC1=O` [Compound 114], in assay [1] (setting [3]), the inhibition at 1 µM is 99%. The IC50 in assay [2] was < 100 nM.

On to `CC(C)[C@@H]1NC(=O)C(C)(C)/C=C/c2ccc3ccc(nc3c2)C(C)N(C)C(=O)[C@@H]2CCCN(N2)C(=O)[C@H](C)NC1=O` (some centres unmarked) [Compound 115], for which, in assay [1] (setting [3]), the inhibition at 1 µM was 92%. Also, the IC50 in assay [2] is < 100 nM.

`CC(C)[C@@H]1NC(=O)C(C)(C)/C=C/c2ccc3ccc(nc3c2)[C@@H](C)OC(=O)[C@]2(C)CCCN(N2)C(=O)[C@H](C)NC1=O` [Compound 119]: the inhibition at 1 µM in assay [1] (setting [3]) amounted to 98%. Moreover, the IC50 in assay [2] was < 100 nM.

As to `CC(C)[C@@H]1NC(=O)C(C)(C)/C=C/c2ccc3ccc(nc3c2)[C@@H](C)NC(=O)[C@@H]2CCCN(N2)C(=O)[C@H](Cc2ccccc2)NC1=O` [Compound 120], the inhibition at 1 µM in assay [1] (setting [3]) turned out to be 91%. Further, in assay [2], the IC50 is < 100 nM.

As for `CC(C)[C@@H]1NC(=O)C2(/C=C/c3ccc4ccc(nc4c3)[C@@H](C)NC(=O)[C@@H]3CCCN(N3)C(=O)[C@H](C)NC1=O)CCC(F)(F)CC2` [Compound 122], the inhibition at 1 µM in assay [1] (setting [3]) came out at 96%. In addition, the IC50 in assay [2] is < 100 nM.

For the compound `CC(C)[C@@H]1NC(=O)C2(/C=C/c3ccc4ccc(nc4c3)[C@@H](C)OC(=O)[C@@H]3CCCN(N3)C(=O)[C@H](C)NC1=O)CCOC(C)(C)C2` (some centres unmarked) [Compound 123], in assay [1] (setting [3]), the inhibition at 1 µM worked out at 100%. Further, in assay [2], the IC50 is < 100 nM.

In the case of `CC[C@H](C)[C@@H]1NC(=O)C(C)(C)/C=C/c2ccc3ccc(nc3c2)[C@@H](C)OC(=O)[C@@H]2CCCN(N2)C(=O)[C@H](C)NC1=O` [Compound 125], the inhibition at 1 µM in assay [1] (setting [3]) was 100%. In addition, in assay [2], the IC50 was < 100 nM.

For `CC(C)[C@@H]1NC(=O)C2(/C=C/c3ccc4ccc(nc4c3)[C@@H](C)OC(=O)[C@@H]3CCCN(N3)C(=O)[C@H](C)NC1=O)CCN(C(=O)OC(C)(C)C)CC2` [Compound 126], the inhibition at 1 µM in assay [1] (setting [3]) came to 100%. Moreover, the IC50 in assay [2] was < 100 nM.

Turning to `CC(C)[C@@H]1NC(=O)C2(/C=C/c3ccc4ccc(nc4c3)[C@@H](C)OC(=O)[C@@H]3CCCN(N3)C(=O)[C@H](C)NC1=O)CCNCC2` [Compound 127], in assay [1] (setting [3]), the inhibition at 1 µM is 2%. In addition, the IC50 in assay [2] was < 100 nM.

Consider `CCN1CCC2(/C=C/c3ccc4ccc(nc4c3)[C@@H](C)OC(=O)[C@@H]3CCCN(N3)C(=O)[C@H](C)NC(=O)[C@H](C(C)C)NC2=O)CC1` [Compound 129], for which, in assay [1] (read-out: Replicon 1a % inhibition at 1 μM), the inhibition at 1 µM was 96%. For the same compound, in assay [2], the IC50 is < 100 nM.

As for `CC(C)[C@@H]1NC(=O)C2(/C=C/c3ccc4ccc(nc4c3)[C@@H](C)OC(=O)[C@@H]3CCCN(N3)C(=O)[C@H](C)NC1=O)CCN(S(C)(=O)=O)CC2` [Compound 130], the inhibition at 1 µM in assay [1] (setting [3]) came out at 100%. Moreover, the IC50 in assay [2] was < 100 nM.
